Laboratory results: patent US20240209027A1, “PEPTIDE AND PEPTIDE-CONTAINING COMPOSITION” (PeptiAID Inc.,, priority 2021, published 2024)
Starred links: 1 amine or outer side, 2 acyl side, 3 side chain; linkers in the order of their positions; H or OH if unused. Positions of bridges follow the written chain, without caps; N, C: chain ends. Non-standard residues stand in square brackets, D forms with d. Residues, ends and D or L forms follow the SMILES beside them. Ala(piperidin-4-yl) = O=C([C@H](CC1CCN([*:3])CC1)N[*:1])[*:2]; Phe(4-COOH) = N[C@@H](Cc1ccc(C(=O)O)cc1)C(=O)O; Phe(4-F) = N[C@@H](Cc1ccc(F)cc1)C(=O)O; NMeE = CN[C@@H](CCC(=O)O)C(=O)O; Cha = N[C@@H](CC1CCCCC1)C(=O)O; dNMeD = CN[C@H](CC(=O)O)C(=O)O; NMeNle = CCCC[C@H](NC)C(=O)O; Aib = CC(C)(N)C(=O)O

What was measured:
[1] = system: SARS-CoV-2 Wuhan strain
[2] = system: SARS-CoV-2 Delta strain

For CCCC[C@H]1C(=O)NC(C)(C)C(=O)N[C@@H](CC2CCCCC2)C(=O)N[C@@H](Cc2ccc(F)cc2)C(=O)N(C)[C@H](CC(=O)O)C(=O)N[C@@H](Cc2ccc(O)cc2)C(=O)N[C@@H](Cc2ccc(O)cc2)C(=O)N[C@@H](Cc2ccc(C(=O)O)cc2)C(=O)N[C@@H](CC2CCNCC2)C(=O)N[C@@H](CC2CCCCC2)C(=O)N[C@H](C(=O)N[C@H](CCC(=O)O)C(N)=O)CSCC(=O)N(C)[C@@H](CCC(=O)O)C(=O)N1C [Peptide 5555_p176] ({CH2CO}-[NMeE][NMeNle][Aib][Cha][Phe(4-F)][dNMeD]YY[Phe(4-COOH)][Ala(piperidin-4-yl)][Cha]C[dE]-NH2; thioether N-12), the IC50 [1] was 13.6 nM and the IC50 [2] was 13.7 nM.
